Test results taken from US7868172B2, “2-(hetero)-aryl substituted tetrahydroquinoline derivatives” (Merck Patent GmbH, priority 2003, dated 2011).
“And” between values parts separate entries of the source, which are not always exact repeats. Equal values may be shown once.

Experiments:
[1] = tested on: HCT116 cells; assay: Cell cycle analysis, propidium iodide FACS (DNA content); assay type: cell-based; conditions: for percentage of cells in the G0/G1 phase (G1) / percentage of cells in the G2/M phase / percentage of cells in the S phase: HCT116, 24 hrs
Experimental: Monasterol and pentamidine in individual experiments: • HCT116 cells were treated with the given concentrations of the compounds for 24 hrs, processed for the propidium iodide analysis with a BD-FACS scan in order to determine the DNA content of the treated cell populations. The percentage of cells in the G0/G1 phase (unreplicated DNA), S phase (DNA replication phase) and G2/M phase (duplicated DNA before mitosis) is shown. 10,000 events were counted for each concentration. Striking changes in the G2/M enrichment have been highlighted.

[2] = tested on: colon carcinoma cell line HCT116; assay: Assay II: combination cell proliferation test, Crystal Violet staining; assay type: cell-based; conditions: for -fold inhibition of proliferation / OD550 nm background corrected / % of control: 48 hrs
Experimental: The combination of the antiprotozoic pentamidine and the inhibitors of kinesin ATPase Eg5/KSP results in increased inhibitory effects in cell proliferation tests with the colon carcinoma cell line HCT116.
10^3 to 10^4 cells of a defined cell line (HCT116, Colo 205, MDA-MB 231, etc.) are sown into each well of a 96-well microtitre plate and cultivated overnight under standard conditions. For the substances of the combination to be tested, 10-50 mM stock solutions in DMSO were prepared. Dilution series (generally 3-fold dilution steps) of the individual substances were combined with one another in the form of a pipetting scheme (see scheme below), while maintaining a DMSO final concentration of 0.5% (v/v). Next morning, the substance mixtures were added to the cells, which were incubated under culture conditions for a further 48 hours. At the end of the cultivation, Crystal Violet staining of the cells was carried out. After extraction of the Crystal Violet from the fixed cells, the absorption at 550 nm was measured spectrophotometrically. It can be used as a quantitative measure of the adherent cells present.
HCT116 cells were incubated overnight at 37° C. in 96-well plates at a density of 2500 or 5000 cells/well. On the following day, a concentration matrix of pentamidine and the compounds indicated was added, and the cells were incubated for a further 48 hrs. The cells were then stained with Crystal Violet, and the absorption was measured after extraction of the dye. The absorption value reflects the number of cells in the well.
Results: Upper matrix: OD550 nm background corrected Central matrix: % of control (the 100% value stands for vehicle-treated cells minus background signal) Lower field: -fold inhibition values (i.e. the 100%/x % value stands for a-fold inhibition of proliferation).

[3] = monastrol 6.125 μM, pentamidine 0 μM
[4] = monastrol 12.5 μM, pentamidine 0 μM
[5] = monastrol 25 μM, pentamidine 0 μM
[6] = monastrol 50 μM, pentamidine 0 μM

Question: Which results are given for CC(C)(C)c1ccc2c(c1)[C@H]1OCCC[C@H]1[C@H](c1ccsc1)N2 [Example I12]?
Answer: percentage of cells in the G0/G1 phase (G1) ([1]; 0.0032 μM): 36%; percentage of cells in the G2/M phase ([1]; 0.0032 μM): 21%; percentage of cells in the S phase ([1]; 0.0032 μM): 44%; percentage of cells in the G0/G1 phase (G1) ([1]; 0.016 μM): 36%; percentage of cells in the G2/M phase ([1]; 0.016 μM): 21%; percentage of cells in the S phase ([1]; 0.016 μM): 43%; percentage of cells in the G0/G1 phase (G1) ([1]; 0.08 μM): 35%; percentage of cells in the G2/M phase ([1]; 0.08 μM): 23%; percentage of cells in the S phase ([1]; 0.08 μM): 42%; percentage of cells in the G0/G1 phase (G1) ([1]; 0.4 μM): 7%; percentage of cells in the G2/M phase ([1]; 0.4 μM): 86%; percentage of cells in the S phase ([1]; 0.4 μM): 7%; percentage of cells in the G0/G1 phase (G1) ([1]; 2 μM): 0%; percentage of cells in the G2/M phase ([1]; 2 μM): 85%; percentage of cells in the S phase ([1]; 2 μM): 15%; activity at 0.025 µM ([2]; Homo sapiens, HCT-116, 48 h, I12 0.025 μM, pentamidine 0 μM, read-out: % of control): 91%; activity at 0.05 µM ([2]; Homo sapiens, HCT-116, 48 h, I12 0.05 μM, pentamidine 0 μM, read-out: % of control): 98%; activity at 0.1 µM ([2]; Homo sapiens, HCT-116, 48 h, I12 0.1 μM, pentamidine 0 μM, read-out: % of control): 90%; activity at 0.2 µM ([2]; Homo sapiens, HCT-116, 48 h, I12 0.2 μM, pentamidine 0 μM, read-out: % of control): 90%; activity at 0.4 µM ([2]; Homo sapiens, HCT-116, 48 h, I12 0.4 μM, pentamidine 0 μM, read-out: % of control): 31%; -fold inhibition of proliferation ([2]; I12 0.025 μM, pentamidine 0 μM): 1 fold; OD550 nm background corrected ([2]; I12 0.025 μM, pentamidine 0 μM): 1.1; -fold inhibition of proliferation ([2]; I12 0.05 μM, pentamidine 0 μM): 1 fold; OD550 nm background corrected ([2]; I12 0.05 μM, pentamidine 0 μM): 1.2; -fold inhibition of proliferation ([2]; I12 0.1 μM, pentamidine 0 μM): 1 fold; OD550 nm background corrected ([2]; I12 0.1 μM, pentamidine 0 μM): 1.1; -fold inhibition of proliferation ([2]; I12 0.2 μM, pentamidine 0 μM): 1 fold; OD550 nm background corrected ([2]; I12 0.2 μM, pentamidine 0 μM): 1.1; -fold inhibition of proliferation ([2]; I12 0.4 μM, pentamidine 0 μM): 3 fold; OD550 nm background corrected ([2]; I12 0.4 μM, pentamidine 0 μM): 0.4

Question: Which “effect on the cell cycle (in words)” value [1] does the source give for N=C(N)c1ccc(OCCCCCOc2ccc(C(=N)N)cc2)cc1 [Pentamidine, pentamidine] here?
Answer: maintain cells in the G2/M cell cycle

Question: What about the activity at 4 µM ([2]; Homo sapiens, HCT-116, 48 h, pentamidine 4 μM alone, read-out: % of control) of the same compound?
Answer: 85%

Question: What about the activity at 8 µM ([2]; Homo sapiens, HCT-116, 48 h, pentamidine 8 μM alone, read-out: % of control) of the same compound?
Answer: 50%

Question: What about the activity at 16 µM ([2]; Homo sapiens, HCT-116, 48 h, pentamidine 16 μM alone, read-out: % of control) of the same compound?
Answer: 30%

Question: And the activity at 32 µM ([2]; Homo sapiens, HCT-116, 48 h, pentamidine 32 μM alone, read-out: % of control)?
Answer: 20%

Question: What about the “% of control” value ([2]; pentamidine 2 μM alone) of the same compound?
Answer: 86% and 124%

Question: What about the “-fold inhibition of proliferation” value ([2]; pentamidine 2 μM alone) of the same compound?
Answer: 1 fold

Question: And the “OD550 nm background corrected” value ([2]; pentamidine 2 μM alone)?
Answer: 1.0 and 1.01

Question: And the “% of control” value ([2]; pentamidine 4 μM alone)?
Answer: 101%

Question: What about the “-fold inhibition of proliferation” value ([2]; pentamidine 4 μM alone) of the same compound?
Answer: 1 fold

Question: What about the “OD550 nm background corrected” value ([2]; pentamidine 4 μM alone) of the same compound?
Answer: 1.0 and 0.82

Question: And the “% of control” value ([2]; pentamidine 8 μM alone)?
Answer: 55%

Question: And the “-fold inhibition of proliferation” value ([2]; pentamidine 8 μM alone)?
Answer: 2 fold

Question: What about the “OD550 nm background corrected” value ([2]; pentamidine 8 μM alone) of the same compound?
Answer: 0.6 and 0.45

Question: What about the “% of control” value ([2]; pentamidine 16 μM alone) of the same compound?
Answer: 18%

Question: And the “-fold inhibition of proliferation” value ([2]; pentamidine 16 μM alone)?
Answer: 3 fold and 6 fold

Question: And the “-fold inhibition of proliferation” value ([2]; pentamidine 32 μM alone)?
Answer: 5 fold

Question: And the “OD550 nm background corrected” value ([2]; pentamidine 32 μM alone)?
Answer: 0.2

Question: Which “percentage of cells in the G0/G1 phase (G1)” value (“percentage of cells … (G1)” below) ([1]; 0.08 μM) does the source give for CCOC(=O)C1=C(C)NC(=S)NC1c1cccc(O)c1 (stereo not drawn) [Monastrol] here?
Answer: 35%

Question: What about the “percentage of cells in the G2/M phase” value ([1]; 0.08 μM) of the same compound?
Answer: 25%

Question: What about the “percentage of cells in the S phase” value ([1]; 0.08 μM) of the same compound?
Answer: 39%

Question: What about the “percentage of cells … (G1)” value ([1]; 0.4 μM) of the same compound?
Answer: 34%

Question: And the “percentage of cells in the G2/M phase” value ([1]; 0.4 μM)?
Answer: 28%

Question: What about the “percentage of cells in the S phase” value ([1]; 0.4 μM) of the same compound?
Answer: 38%

Question: And the “percentage of cells … (G1)” value ([1]; 2 μM)?
Answer: 33%

Question: And the “percentage of cells in the G2/M phase” value ([1]; 2 μM)?
Answer: 25%

Question: What about the “percentage of cells in the S phase” value ([1]; 2 μM) of the same compound?
Answer: 42%

Question: What about the “percentage of cells … (G1)” value ([1]; 10 μM) of the same compound?
Answer: 34%

Question: And the “percentage of cells in the G2/M phase” value ([1]; 10 μM)?
Answer: 27%

Question: What about the “percentage of cells in the S phase” value ([1]; 10 μM) of the same compound?
Answer: 39%

Question: What about the “percentage of cells … (G1)” value ([1]; 50 μM) of the same compound?
Answer: 14%

Question: And the “percentage of cells in the G2/M phase” value ([1]; 50 μM)?
Answer: 52%

Question: And the “percentage of cells in the S phase” value ([1]; 50 μM)?
Answer: 33%

Question: And the activity at 6.125 µM ([2]; Homo sapiens, HCT-116, 48 h, monastrol 6.125 μM, pentamidine 0 μM, read-out: % of control)?
Answer: 84%

Question: And the activity at 12.5 µM ([2]; Homo sapiens, HCT-116, 48 h, monastrol 12.5 μM, pentamidine 0 μM, read-out: % of control)?
Answer: 62%

Question: What about the activity at 25 µM ([2]; Homo sapiens, HCT-116, 48 h, monastrol 25 μM, pentamidine 0 μM, read-out: % of control) of the same compound?
Answer: 53%

Question: What about the activity at 50 µM ([2]; Homo sapiens, HCT-116, 48 h, monastrol 50 μM, pentamidine 0 μM, read-out: % of control) of the same compound?
Answer: 17%

Question: And the “-fold inhibition of proliferation” value [2, 3]?
Answer: 1 fold

Question: What about the “OD550 nm background corrected” value [2, 3] of the same compound?
Answer: 0.68

Question: And the “-fold inhibition of proliferation” value [2, 4]?
Answer: 2 fold

Question: And the “OD550 nm background corrected” value [2, 4]?
Answer: 0.51

Question: And the “-fold inhibition of proliferation” value [2, 5]?
Answer: 2 fold

Question: What about the “OD550 nm background corrected” value [2, 5] of the same compound?
Answer: 0.43

Question: What about the “-fold inhibition of proliferation” value [2, 6] of the same compound?
Answer: 6 fold

Question: What about the “OD550 nm background corrected” value [2, 6] of the same compound?
Answer: 0.14

Question: N=C(N)c1ccc(OCCCCCOc2ccc(C(=N)N)cc2)cc1.O=S(=O)(O)CCO.O=S(=O)(O)CCO [Pentamidine Isothionate] was tested. Which “percentage of cells … (G1)” value ([1]; 0.016 μM) did it give?
Answer: 36%

Question: What about the “percentage of cells in the G2/M phase” value ([1]; 0.016 μM) of the same compound?
Answer: 22%

Question: What about the “percentage of cells in the S phase” value ([1]; 0.016 μM) of the same compound?
Answer: 42%

Question: And the “percentage of cells … (G1)” value ([1]; 0.08 μM)?
Answer: 35%

Question: What about the “percentage of cells in the G2/M phase” value ([1]; 0.08 μM) of the same compound?
Answer: 21%

Question: And the “percentage of cells in the S phase” value ([1]; 0.08 μM)?
Answer: 44%

Question: What about the “percentage of cells … (G1)” value ([1]; 0.4 μM) of the same compound?
Answer: 33%

Question: What about the “percentage of cells in the G2/M phase” value ([1]; 0.4 μM) of the same compound?
Answer: 22%

Question: And the “percentage of cells in the S phase” value ([1]; 0.4 μM)?
Answer: 45%

Question: What about the “percentage of cells … (G1)” value ([1]; 2 μM) of the same compound?
Answer: 32%

Question: What about the “percentage of cells in the G2/M phase” value ([1]; 2 μM) of the same compound?
Answer: 24%

Question: What about the “percentage of cells in the S phase” value ([1]; 2 μM) of the same compound?
Answer: 44%

Question: And the “percentage of cells … (G1)” value ([1]; 10 μM)?
Answer: 32%

Question: And the “percentage of cells in the G2/M phase” value ([1]; 10 μM)?
Answer: 32%

Question: What about the “percentage of cells in the S phase” value ([1]; 10 μM) of the same compound?
Answer: 32%
